# Assay results: PubChem BioAssay AID2060505 (Molecular Pharmacology Branch, DTP, NCI, 2025)
# Tested on: 633275-114-R-J1-PDC complex spheroids, viability
# Assay: Anticancer human tumor 633275-114-R-J1-PDC patient-derived endometrial adenocarcinoma cell line growth inhibition [GQUAD]
# Settings: for IC50: curve of first compound; for viability, T/C: stronger effect = lower value
# Outline: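 Viability of tumor cells grown as complex spheroids with endothelial and stromal cells, exposed to drug combinations. Top concentration at or near clinical Cmax (else 10 microM), diluted in half-log increments.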
# [1] = second compound 0.0316 µM, first compound 0.0316 µM
# [2] = second compound 0.0316 µM, first compound 0.1 µM
# [3] = second compound 0.0316 µM, first compound 0.316 µM
# [4] = second compound 0.0316 µM, first compound 1 µM
# [5] = second compound 0.0316 µM, first compound 3.16 µM
# [6] = second compound 0.0316 µM, first compound 10 µM
# [7] = second compound 0.1 µM, first compound 0.0316 µM
# [8] = second compound 0.1 µM, first compound 0.1 µM
# [9] = second compound 0.1 µM, first compound 0.316 µM
# [10] = second compound 0.1 µM, first compound 1 µM
# [11] = second compound 0.1 µM, first compound 3.16 µM
# [12] = second compound 0.1 µM, first compound 10 µM
# [13] = second compound 0.316 µM, first compound 0.0316 µM
# [14] = second compound 0.316 µM, first compound 0.1 µM
# [15] = second compound 0.316 µM, first compound 0.316 µM
# [16] = second compound 0.316 µM, first compound 1 µM
# [17] = second compound 0.316 µM, first compound 3.16 µM
# [18] = second compound 0.316 µM, first compound 10 µM
# [19] = second compound 1 µM, first compound 0.0316 µM
# [20] = second compound 1 µM, first compound 0.1 µM
# [21] = second compound 1 µM, first compound 0.316 µM
# [22] = second compound 1 µM, first compound 1 µM
# [23] = second compound 1 µM, first compound 3.16 µM
# [24] = second compound 1 µM, first compound 10 µM
# [25] = second compound 3.16 µM, first compound 0.0316 µM
# [26] = second compound 3.16 µM, first compound 0.1 µM
# [27] = second compound 3.16 µM, first compound 0.316 µM
# [28] = second compound 3.16 µM, first compound 1 µM
# [29] = second compound 3.16 µM, first compound 3.16 µM
# [30] = second compound 3.16 µM, first compound 10 µM
# [31] = second compound 10 µM, first compound 0.0316 µM
# [32] = second compound 10 µM, first compound 0.1 µM
# [33] = second compound 10 µM, first compound 0.316 µM
# [34] = second compound 10 µM, first compound 1 µM
# [35] = second compound 10 µM, first compound 3.16 µM
# [36] = second compound 10 µM, first compound 10 µM
# 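Further: spheroids exposed to the agents for seven days.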
# 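Wherever viability, T/C is given: percent of DMSO vehicle control viability which is 100%.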
smiles,measurement,setting,value
CC(=O)O[C@H]1C(=O)[C@@]2(C)[C@H]([C@H](OC(=O)c3ccccc3)[C@]3(O)C[C@H](OC(=O)[C@H](O)[C@@H](NC(=O)c4ccccc4)c4ccccc4)C(C)=C1C3(C)C)[C@]1(OC(C)=O)CO[C@@H]1C[C@@H]2O + Cc1cnc(CNC(=O)c2c(=O)c3ccc(N4CCCN(C)CC4)nc3n3c2sc2ccccc23)cn1,IC50,second compound 0.0316 µM,< 31.6 nM
same,IC50,second compound 0.1 µM,< 31.6 nM
same,IC50,second compound 0.316 µM,< 31.6 nM
same,IC50,second compound 1 µM,< 31.6 nM
same,IC50,second compound 3.16 µM,< 31.6 nM
same,IC50,second compound 10 µM,< 31.6 nM
same,"viability, T/C",[1],43.8%
same,"viability, T/C",[2],30.5%
same,"viability, T/C",[3],27.4%
same,"viability, T/C",[4],25.1%
same,"viability, T/C",[5],24.9%
same,"viability, T/C",[6],25.6%
same,"viability, T/C",[7],42.3%
same,"viability, T/C",[8],37.3%
same,"viability, T/C",[9],32.8%
same,"viability, T/C",[10],35.2%
same,"viability, T/C",[11],33.9%
same,"viability, T/C",[12],34.1%
same,"viability, T/C",[13],43.5%
same,"viability, T/C",[14],39.3%
same,"viability, T/C",[15],41.7%
same,"viability, T/C",[16],38.2%
same,"viability, T/C",[17],35.8%
same,"viability, T/C",[18],35.3%
same,"viability, T/C",[19],38.5%
same,"viability, T/C",[20],37.4%
same,"viability, T/C",[21],39.3%
same,"viability, T/C",[22],43.2%
same,"viability, T/C",[23],35.1%
same,"viability, T/C",[24],36.2%
same,"viability, T/C",[25],39%
same,"viability, T/C",[26],35%
same,"viability, T/C",[27],35.8%
same,"viability, T/C",[28],39.7%
same,"viability, T/C",[29],35.8%
same,"viability, T/C",[30],32.6%
same,"viability, T/C",[31],31.1%
same,"viability, T/C",[32],28.7%
same,"viability, T/C",[33],27.5%
same,"viability, T/C",[34],31.7%
same,"viability, T/C",[35],32.4%
same,"viability, T/C",[36],30.8%
CCCS(=O)(=O)Nc1ccc(F)c(C(=O)c2c[nH]c3ncc(-c4ccc(Cl)cc4)cc23)c1F + Cc1[nH]c2ccc(F)cc2c1-c1nc2c3cccnc3c3ncccc3c2[nH]1,IC50,second compound 0.0316 µM,9540 nM
same,IC50,second compound 0.1 µM,9210 nM
same,IC50,second compound 0.316 µM,8580 nM
same,IC50,second compound 1 µM,8240 nM
same,IC50,second compound 3.16 µM,7090 nM
same,IC50,second compound 10 µM,> 10000 nM
same,"viability, T/C",[1],103%
same,"viability, T/C",[2],94.6%
same,"viability, T/C",[3],107%
same,"viability, T/C",[4],100%
same,"viability, T/C",[5],86.8%
same,"viability, T/C",[6],48.1%
same,"viability, T/C",[7],100%
same,"viability, T/C",[8],108%
same,"viability, T/C",[9],102%
same,"viability, T/C",[10],102%
same,"viability, T/C",[11],91.6%
same,"viability, T/C",[12],46.7%
same,"viability, T/C",[13],91.2%
same,"viability, T/C",[14],98.9%
same,"viability, T/C",[15],103%
same,"viability, T/C",[16],104%
same,"viability, T/C",[17],94.7%
same,"viability, T/C",[18],43.1%
same,"viability, T/C",[19],86.4%
same,"viability, T/C",[20],88.8%
same,"viability, T/C",[21],92.5%
same,"viability, T/C",[22],90.2%
same,"viability, T/C",[23],90.1%
same,"viability, T/C",[24],42%
same,"viability, T/C",[25],70.7%
same,"viability, T/C",[26],71.2%
same,"viability, T/C",[27],66.9%
same,"viability, T/C",[28],76.2%
same,"viability, T/C",[29],71.2%
same,"viability, T/C",[30],41%
same,"viability, T/C",[31],60.4%
same,"viability, T/C",[32],64.3%
same,"viability, T/C",[33],65.2%
same,"viability, T/C",[34],74.4%
same,"viability, T/C",[35],63.3%
same,"viability, T/C",[36],41.1%
COc1ccc([C@@H](O)c2cc(-c3ncnc4cc(N5CCOCC5)ccc34)c(F)cc2Cl)nn1 + Cc1cnc(CNC(=O)c2c(=O)c3ccc(N4CCCN(C)CC4)nc3n3c2sc2ccccc23)cn1,IC50,second compound 0.0316 µM,179 nM
same,IC50,second compound 0.1 µM,60.3 nM
same,IC50,second compound 0.316 µM,< 31.6 nM
same,IC50,second compound 1 µM,< 31.6 nM
same,IC50,second compound 3.16 µM,< 31.6 nM
same,IC50,second compound 10 µM,< 31.6 nM
same,"viability, T/C",[1],59.8%
same,"viability, T/C",[2],60.3%
same,"viability, T/C",[3],40.9%
same,"viability, T/C",[4],29.2%
same,"viability, T/C",[5],19.2%
same,"viability, T/C",[6],12.2%
same,"viability, T/C",[7],51.5%
same,"viability, T/C",[8],50.5%
same,"viability, T/C",[9],36.1%
same,"viability, T/C",[10],25%
same,"viability, T/C",[11],18.8%
same,"viability, T/C",[12],11.2%
same,"viability, T/C",[13],48.6%
same,"viability, T/C",[14],45.7%
same,"viability, T/C",[15],30.1%
same,"viability, T/C",[16],24.9%
same,"viability, T/C",[17],20.6%
same,"viability, T/C",[18],11.9%
same,"viability, T/C",[19],40.2%
same,"viability, T/C",[20],37.9%
same,"viability, T/C",[21],28.4%
same,"viability, T/C",[22],24.6%
same,"viability, T/C",[23],18.1%
same,"viability, T/C",[24],11.1%
same,"viability, T/C",[25],34%
same,"viability, T/C",[26],29.4%
same,"viability, T/C",[27],27.6%
same,"viability, T/C",[28],21.8%
same,"viability, T/C",[29],18.7%
same,"viability, T/C",[30],11.5%
same,"viability, T/C",[31],30.8%
same,"viability, T/C",[32],27.5%
same,"viability, T/C",[33],28.6%
same,"viability, T/C",[34],19.9%
same,"viability, T/C",[35],16%
same,"viability, T/C",[36],3.93%
Cn1ncnc1[C@H]1c2n[nH]c(=O)c3cc(F)cc(c23)N[C@@H]1c1ccc(F)cc1 + Cc1[nH]c2ccc(F)cc2c1-c1nc2c3cccnc3c3ncccc3c2[nH]1,IC50,second compound 0.0316 µM,> 316 nM
same,IC50,second compound 0.1 µM,> 316 nM
same,IC50,second compound 0.316 µM,> 316 nM
same,IC50,second compound 1 µM,> 316 nM
same,IC50,second compound 3.16 µM,257 nM
same,IC50,second compound 10 µM,> 316 nM
same,"viability, T/C","second compound 0.0316 µM, first compound 0.000999 µM",96.6%
same,"viability, T/C","second compound 0.0316 µM, first compound 0.00316 µM",83.2%
same,"viability, T/C","second compound 0.0316 µM, first compound 0.00999 µM",83.7%
same,"viability, T/C",[1],75.4%
same,"viability, T/C","second compound 0.0316 µM, first compound 0.0999 µM",66.8%
same,"viability, T/C",[3],64.4%
same,"viability, T/C","second compound 0.1 µM, first compound 0.000999 µM",93%
same,"viability, T/C","second compound 0.1 µM, first compound 0.00316 µM",93%
same,"viability, T/C","second compound 0.1 µM, first compound 0.00999 µM",91.7%
same,"viability, T/C",[7],75.5%
same,"viability, T/C","second compound 0.1 µM, first compound 0.0999 µM",67.1%
same,"viability, T/C",[9],57.6%
same,"viability, T/C","second compound 0.316 µM, first compound 0.000999 µM",92.7%
same,"viability, T/C","second compound 0.316 µM, first compound 0.00316 µM",92%
same,"viability, T/C","second compound 0.316 µM, first compound 0.00999 µM",82.6%
same,"viability, T/C",[13],82.4%
same,"viability, T/C","second compound 0.316 µM, first compound 0.0999 µM",69.1%
same,"viability, T/C",[15],57.2%
same,"viability, T/C","second compound 1 µM, first compound 0.000999 µM",91%
same,"viability, T/C","second compound 1 µM, first compound 0.00316 µM",85.4%
same,"viability, T/C","second compound 1 µM, first compound 0.00999 µM",79.1%
same,"viability, T/C",[19],72.6%
same,"viability, T/C","second compound 1 µM, first compound 0.0999 µM",66.6%
same,"viability, T/C",[21],54.2%
same,"viability, T/C","second compound 3.16 µM, first compound 0.000999 µM",74%
same,"viability, T/C","second compound 3.16 µM, first compound 0.00316 µM",66.6%
same,"viability, T/C","second compound 3.16 µM, first compound 0.00999 µM",65.1%
same,"viability, T/C",[25],61.2%
same,"viability, T/C","second compound 3.16 µM, first compound 0.0999 µM",52.3%
same,"viability, T/C",[27],49.4%
same,"viability, T/C","second compound 10 µM, first compound 0.000999 µM",73.7%
same,"viability, T/C","second compound 10 µM, first compound 0.00316 µM",77.7%
same,"viability, T/C","second compound 10 µM, first compound 0.00999 µM",66.5%
same,"viability, T/C",[31],60.2%
same,"viability, T/C","second compound 10 µM, first compound 0.0999 µM",55.9%
same,"viability, T/C",[33],51.8%
